Values of other authors in article PMC11320581 (ACS Infectious Diseases, 2024).

Test system: M. tuberculosis gyrase with single-resistance mutations at GyrA Ala90 and Asp94
Settings: cited from earlier work

Compound: C[C@@H]1CN2c3c(cc4c(N5C(=O)OC[C@@H]5C)noc4c3F)CC3(C(=O)NC(=O)NC3=O)[C@H]2[C@H](C)O1 [zoliflodacin, Zoliflodacin]
- maximal double-stranded DNA scission with fluoroquinolone-resistant gyrases, fold higher than wild-type: 2- to 5 fold
